Here are results for two compounds from patent publication US9232796B2, “Herbicidal compositions comprising 4-amino-3-chloro-5-fluoro-6-(4-chloro-2-fluoro-3-methoxyphenyl) pyridine-2-carboxylic acid or a derivative thereof and acetyl-CoA carboxylase (ACCase) inhibitors” (DOW AGROSCIENCES LLC, priority 2012, dated 2016).

One assay deals with SCPJU. Put plainly: Example VI in-water applied ternary mixtures, greenhouse, transplanted paddy rice weeds. In kind it is in vivo, Schoenoplectus juncoides (Roxb.) Palla. The method, then:
Weed seeds or nutlets of the desired test plant species were planted in puddled soil (mud) prepared by mixing a shredded, non-sterilized mineral soil (50.5 percent silt, 25.5 percent clay, and 24 percent sand, with a pH of about 7.6 and an organic matter content of about 2.9 percent) and water at a 1:1 volumetric ratio. The prepared mud was dispensed in 365 mL aliquots into 16-ounce (oz.) non-perforated plastic pots with a surface area of 86.59 square centimeters (cm^2) leaving a headspace of 3 centimeters (cm) in each pot. Mud was allowed to dry overnight prior to planting or transplanting. Rice seeds were planted in Sun Gro MetroMix® 306 planting mixture, which typically has a pH of 6.0 to 6.8 and an organic matter content of about 30 percent, in plastic plug trays. Seedlings at the second or third leaf stage of growth were transplanted into 860 mL of mud contained in 32-oz. non-perforated plastic pots with a surface area of 86.59 cm^2 4 days prior to herbicide application. The paddy was created by filling the headspace of the pots with 2.5 to 3 cm of water. When required to ensure good germination and healthy plants, a fungicide treatment and/or other chemical or physical treatment was applied. The plants were grown for 4-22 days in a greenhouse with an approximate 14 hr. photoperiod which was maintained at about 29° C. during the day and 26° C. during the night. Nutrients were added as Osmocote® (19:6:12, N:P:K+minor nutrients) at 2 g per 16-oz. pot and 4 g per 32-oz. pot. Water was added on a regular basis to maintain the paddy flood, and supplemental lighting was provided with overhead metal halide 1000-Watt lamps as necessary. The plants were employed for testing when they reached the first through fourth true leaf stage.
Treatments consisted of the benzyl ester of 4-amino-3-chloro-5-fluoro-6-(4-chloro-2-fluoro-3-methoxy-phenyl)pyridine-2-carboxylic acid (Compound A), formulated as an SC (suspension concentrate), an ACCase inhibitor herbicide, and a third herbicidal component, each applied alone and in ternary combination. Forms of compound A were applied on an acid equivalent basis.
The ACCase inhibitor component was applied on an active ingredient basis and included cyhalofop-R-butyl formulated as Clincher® G and metamifop formulated as Metamifop EC. […]
Treatment requirements for each compound or herbicidal component were calculated based upon the rates being tested, the concentration of active ingredient or acid equivalent in the formulation, an application volume of 1 mL per component per pot, and an application area of 86.59 cm^2 per pot.
For formulated compounds, a measured amount was placed in an individual 100 or 200 mL glass vial and was dissolved in a volume of 1.25% (v/v) Agri-Dex® crop oil concentrate to obtain application solutions. […]

A further assay has as its system ECHCG. Put plainly: Example V post-emergence field trials in direct-seeded rice. In kind it is in vivo, Echinochloa crus-galli. The conditions noted are these: foliar, field trial Greece. The method, then: Multiple field trials were conducted under commercial grower field conditions in Tolima, Colombia; Thessaloniki, Greece; Bianze and Copiano, Italy; and Humphrey, Ark., USA. Trials sites were located in commercially grown fields of direct-seeded rice (Oryza sativa) using standard herbicide small plot research methodology. Plots varied from 2 to 3 meter (m)×5 to 8 m (width×length) with 4 replicates per treatment. The rice crop was grown using normal cultural practices for fertilization, seeding, watering, flooding and maintenance to ensure good growth of the crop and the weeds.
All treatments in the field trials were applied using a backpack compressed air/gas sprayer with flat fan nozzles (80° or 110°) calibrated to apply 187 to 300 L/ha spray volume at approximately 200-400 kPa nozzle pressure. Commercially available products of cyhalofop-butyl (Clincher 180EC, Clincher 200EC, and Clincher SF (285 gr ai/L EC)) were mixed in water at appropriate formulated product rates to achieve the desired rates based on a unit area of application (hectare) to achieve the desired rates as shown. Treatments were rate at 19 to 58 days after application (DAA) as compared to the untreated control plants. Visual weed control was scored on a scale of 0 to 100 percent where 0 corresponds to no injury and 100 corresponds to complete kill. […]

As for `COc1c(Cl)ccc(-c2nc(C(=O)OCc3ccccc3)c(Cl)c(N)c2F)c1F` [Compound A Benzyl Ester, benzyl ester of 4-amino-3-chloro-5-fluoro-6-(4-chloro-2-fluoro-3-methoxy-phenyl)pyridine-2-carboxylic acid], the “Visual Weed Control (%) - 21 DAA SCPJU Obs” value in the assay with SCPJU (2.19 gae/ha) stood at 77%. Further, the “Visual Weed Control (%) - 55-58 DAA ECHCG Obs” value with ECHCG (24 gae/ha) is listed as 6%.
As for `CCCCOC(=O)[C@@H](C)Oc1ccc(Oc2ccc(C#N)cc2F)cc1` [Cyhalofop-butyl, butyl(2R)-2-[4-(4-cyano-2-fluorophenoxy)phenoxy]propanoate, reference compound], the “Visual Weed Control (%) - 21 DAA SCPJU Obs” value in the assay with SCPJU (22.5 gai/ha) and in the assay with SCPJU (45 gai/ha) was 0% each time. Besides, in the assay with ECHCG (300 gai/ha), the “Visual Weed Control (%) - 55-58 DAA ECHCG Obs” value worked out at 29%.
